Measured values from article PMC10352325, “Nitro-benzylideneoxymorphone, a bifunctional mu and delta opioid receptor ligand with high mu opioid receptor efficacy” (Frontiers in Pharmacology, 2023).
“And” between values parts separate entries of the source, which are not always exact repeats. Equal entries are not always repeated.

Tests used:
[1] = biological target: T1, DOPr (Homo sapiens, UniProt P41143); experiment: biochemical; settings: for Emax: read-out: DOPr Emax ±SEM; for Selectivity DOPr/MOPr (EC50): ratio of [35S]GTPγS EC50
T1 construct: host or cells: CHO
T1 sequence (P41143 whole entry): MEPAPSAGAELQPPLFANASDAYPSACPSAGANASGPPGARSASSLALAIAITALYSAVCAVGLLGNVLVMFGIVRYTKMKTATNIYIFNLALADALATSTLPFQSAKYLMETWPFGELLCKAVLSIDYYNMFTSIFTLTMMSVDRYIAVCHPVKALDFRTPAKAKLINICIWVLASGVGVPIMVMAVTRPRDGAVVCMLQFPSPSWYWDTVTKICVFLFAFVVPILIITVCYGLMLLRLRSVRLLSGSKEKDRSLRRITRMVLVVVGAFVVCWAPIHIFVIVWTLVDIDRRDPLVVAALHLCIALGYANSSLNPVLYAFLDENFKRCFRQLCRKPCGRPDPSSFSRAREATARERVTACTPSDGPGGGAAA

[2] = tested on: C57BL/6 mice; experiment: Toxicology on chronic administration (body weight, health); assay type: in vivo, mouse; settings: for weight-loss on chronic administration: 32 mg/kg, C57BL/6 WT mice, tolerance experiment; for health on repeated administration (need for euthanasia): preliminary experiments, without saline supplement
[3] = biological target: T2, MOPr (Homo sapiens, UniProt P35372); experiment: [35S]GTPγS coupling, MOPr-CHO membranes; assay type: biochemical; settings: for Emax: read-out: MOPr Emax ±SEM
T2 construct: host or cells: CHO
T2 sequence (P35372 whole entry): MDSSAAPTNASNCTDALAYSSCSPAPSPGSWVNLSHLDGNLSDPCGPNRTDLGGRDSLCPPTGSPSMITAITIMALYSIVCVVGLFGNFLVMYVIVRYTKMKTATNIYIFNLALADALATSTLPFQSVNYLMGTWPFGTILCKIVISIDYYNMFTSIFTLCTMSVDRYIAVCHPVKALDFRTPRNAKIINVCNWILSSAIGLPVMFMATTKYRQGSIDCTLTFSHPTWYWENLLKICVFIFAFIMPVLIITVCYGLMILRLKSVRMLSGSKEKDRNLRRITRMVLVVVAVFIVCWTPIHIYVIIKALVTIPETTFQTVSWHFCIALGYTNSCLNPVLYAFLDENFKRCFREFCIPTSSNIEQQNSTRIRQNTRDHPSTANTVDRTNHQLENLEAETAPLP

[4] = tested on: rats; design: method as in Mada et al., 2020; settings: ref Mada et al., 2020; cited from earlier work
[5] = tested on: C57BL/6 mice; experiment: Chronic administration and antinociceptive tolerance, 50°C WWTW; assay type: in vivo, mouse; settings: for day of first statistically significant antinociceptive tolerance: 10 mg/kg morphine, 32 mg/kg 12, i.p. 3x daily, WT mice
Description: As expected, the OPr antagonist and MOPr KO experiments indicate that antinociception and likely tolerance are MOPr-mediated effects.
Chronic administration and antinociceptive tolerance. To investigate antinociceptive tolerance, either C57BL/6 WT or MOR KO mice were administered (i.p.) drug 2-3 times a day as indicated (Figure 3). […]. Mice administered with 12 were injected with 0.5 mL 0.9% saline (s.c.) twice daily. Mice were injected again at 7 p.m. on day 1, but neither weighed nor tested for antinociception. […]. A two-way analysis of variance (ANOVA) was conducted for all tolerance assays. The significance threshold was p < 0.05, and a Tukey post hoc test followed all significant ANOVAs.

[6] = tested on: C57BL/6 mice; experiment: Acute antinociception, 50°C warm water tail withdrawal (WWTW); assay type: in vivo, mouse; settings: i.p.; for tail withdrawal latency, dose-response: 30 min before 50°C WWTW, C57BL/6 WT mice
Description: The 50°C warm water tail withdrawal (WWTW) antinociception assay is a standard preclinical pain assay, in which clinical analgesics increase the latency of tail removal from the warm water (Figure 2A).
To compare the total antinociceptive activity over time, we determined the area under the curve (AUC) of each ligand’s time-course.
Acute antinociception: 50°C warm-water tail withdrawal test in C57BL/6 mice. […] A maximum cutoff time of 20 s was implemented to prevent tissue damage. […] Drug-stimulated antinociception was expressed as a percentage of maximum possible effect (% MPE), where % MPE = (drug latency—baseline latency)/(cutoff latency—baseline latency) × 100. The acute antinociception results were analyzed with a one-way ANOVA followed by a post hoc Dunnett test comparing the drug(s) to vehicle.

[7] = biological target: T2, MOPr; experiment: biochemical; assay type: binding; settings: for MOPr ΔG: Gibb's free energy converted from experimental Ki; for Ki: [3H]-diprenorphine, CHO membranes, n = 3, mean ± SEM
Description: (§1) Cell lines, cell culture, and drug preparation. The hDOPr-CHO cell line was a generous gift from Dr. Larry Toll at the Torrey Pines Institute. The hMOPr- and hKOPr-CHO cell lines were generous gifts from John M. Streicher at the University of Arizona. All cells were cultured in 50:50 DMEM/F12 media with 10% heat-inactivated FBS and 1X penicillin/streptomycin supplement (all Gibco brand) in a 37°C humidified incubator with 5% CO2 atmosphere. Propagation cultures were further maintained with 500 μg/mL G418. Cultures were propagated for no more than 30 passages before discarding. […] Cell pellets were resuspended in 50 mM Tris HCl pH 7.4 and homogenized with a tissue grinder for 15–30 s on ice. Crude membranes were spun down at 15,000 g for 30 min. This process was repeated, and membrane preparations were stored at −80°C prior to use.
(§2) Briefly, these reactions were miniaturized to a 400 μL volume in 96 well plates and incubated at RT for 1 h at DOPr-, KOPr- and MOPr-CHO membrane preparations. The reactions were terminated by rapid filtration through 96-well format GF/B filter plates (PerkinElmer) and washed with cold 25 mM Tris HCl pH 7.4 buffer, dried, and added ECOLUME^TM scintillation cocktail from MP Biomedicals (Santa Cruz, CA, United States). The plates were read in a MicroBeta2 96-well format 6 detector scintillation counter (PerkinElmer). KI values were calculated using the IC50 of each competitor ligand and the previously established KD of ^3H-diprenorphine in each cell line using a competition binding model (GraphPad Prism 7.0).

[8] = biological target: T1, DOPr; experiment: biochemical; assay type: binding; settings: for DOPr ΔG: Gibb's free energy converted from experimental Ki
Description: as §1, §2

[9] = biological target: T3, KOPr (Homo sapiens, UniProt P41145); experiment: biochemical; assay type: binding; settings: for Ki: [3H]-diprenorphine, CHO membranes, n = 3, mean ± SEM; for Selectivity KOPr/MOPr (Ki): ratio of binding Ki
T3 construct: host or cells: CHO
T3 sequence (P41145 whole entry): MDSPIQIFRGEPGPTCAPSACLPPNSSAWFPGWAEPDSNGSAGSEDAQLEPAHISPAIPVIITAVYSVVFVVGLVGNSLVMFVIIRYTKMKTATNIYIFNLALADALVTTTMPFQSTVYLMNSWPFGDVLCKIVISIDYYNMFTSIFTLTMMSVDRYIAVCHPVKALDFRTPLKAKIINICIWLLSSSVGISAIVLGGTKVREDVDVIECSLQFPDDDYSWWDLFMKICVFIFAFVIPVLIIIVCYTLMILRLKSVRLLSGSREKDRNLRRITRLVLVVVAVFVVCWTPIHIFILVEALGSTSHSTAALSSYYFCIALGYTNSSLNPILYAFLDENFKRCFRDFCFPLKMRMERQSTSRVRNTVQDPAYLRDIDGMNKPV
Description: as §1, §2

[10] = biological target: T1, DOPr; experiment: βarrestin2 recruitment (DiscoveRx PathHunter); assay type: cell-based
Excerpt: We further evaluated 12 in βarrestin2 recruitment assays (DiscoveRx) to evaluate DOPr agonist vs. antagonist efficacy in a higher efficacy requiring assay (Supplementary Figure S1). […] None of the compounds in this series stimulated KOPr-mediated G-protein recruitment. Retaining selectivity over KOPr is vital because KOPr agonists cause dysphoria and hallucinations ([Bruchas et al., 2007]; [Cunningham et al., 2011]).
βarrestin2 recruitment. βarrestin2 recruitment in CHO cells expressing […] was measured using the DiscoverRx PathHunter® assay kit (DiscoveRx, Fremont, CA) according to the manufacturer’s protocol. Assays were performed on at least three separate occasions in triplicate. Luminescence was read using a Synergy 2 plate reader (BioTek, Winooski, VT).

[11] = biological target: T3, KOPr; experiment: [35S]GTPγS coupling, KOPr-CHO membranes; assay type: biochemical; settings: Emax% relative to U69,593, read-out: KOPr Emax ±SEM

SMILES	EC50 [1] [nM]	Emax [1] [%]	EC50 [3] [nM]	Emax [3] [%]	MOPr ΔG [7] [kcal/mol]	Ki [7]	Ki [8] [nM]	DOPr ΔG [8] [kcal/mol]	Ki [9] [nM]	Selectivity KOPr/MOPr (Ki) [9]	Selectivity DOPr/MOPr (EC50) [1]	further results
CN1CC[C@]23c4c5ccc(O)c4O[C@H]2C(=O)/C(=C/c2ccccc2)C[C@@]3(O)[C@H]1C5 [Compound 5, 7-E-benzylideneoxymorphone]	26 ± 4	22 ± 4	63 ± 25	53 ± 9	–	–	–	–	–	–	–	weight-loss on chronic administration [2]: neither weight-loss nor antinociception; antinociception in the warm water tail withdrawal test [4]: < 20 % MPE; antinociception in the tolerance paradigm ([5]; 32 mg/kg, C57BL/6 WT mice): neither weight-loss nor antinociception; tail withdrawal latency, dose-response [6]: negligible antinociception
CN1CC[C@]23c4c5ccc(O)c4O[C@H]2C(=O)/C(=C/c2ccc(F)cc2)C[C@@]3(O)[C@H]1C5 [Compound 7]	–	< 15	95 ± 25	69 ± 16	-10.57 ± 0.28	19.9 ± 11.7 nM	55 ± 8	-9.97 ± 0.08	> 1000	>50	–	–
CN1CC[C@]23c4c5ccc(O)c4O[C@H]2C(=O)/C(=C/c2ccc(Cl)cc2)C[C@@]3(O)[C@H]1C5 [Compound 8]	145 ± 14	9 ± 3	> 1000	–	-10.46 ± 0.03	23.8 ± 1.2 nM	47 ± 16	-10.06 ± 0.17	> 1000	>42	<0.15	–
CN1CC[C@]23c4c5ccc(O)c4O[C@H]2C(=O)/C(=C/c2ccc(Br)cc2)C[C@@]3(O)[C@H]1C5 [Compound 9]	–	< 15	> 1000	–	-10.16 ± 0.14	39.9 ± 10.5 nM	121 ± 45	-9.50 ± 0.19	> 1000	>25	–	–
COc1ccc(/C=C2\C[C@@]3(O)[C@H]4Cc5ccc(O)c6c5[C@@]3(CCN4C)[C@@H](O6)C2=O)cc1 [Compound 10]	102 ± 8	30 ± 9	172 ± 55	80 ± 5	-10.92 ± 0.12	11 ± 2.4 nM	37 ± 9	-10.20 ± 0.13	> 1000	>90	0.59	–
CN1CC[C@]23c4c5ccc(O)c4O[C@H]2C(=O)/C(=C/c2ccc(O)cc2)C[C@@]3(O)[C@H]1C5 [Compound 11]	97 ± 40	21 ± 6	275 ± 100	85 ± 6	-10.49 ± 0.14	22.7 ± 6 nM	37 ± 7	-10.20 ± 0.10	> 1000	>44	0.35	–
CN1CC[C@]23c4c5ccc(O)c4O[C@H]2C(=O)/C(=C/c2ccc([N+](=O)[O-])cc2)C[C@@]3(O)[C@H]1C5 [Compound 12, Nitro-benzylideneoxymorphone]	20 ± 5	28 ± 4	2.2 ± 0.5	87 ± 7	-12.42 ± 0.17	0.9 ± 0.3 nM	10 ± 3	-10.98 ± 0.16	180 ± 60	197	9.1	Kb [10]: 32 nM; DOPr-mediated βarrestin2 recruitment, compound alone ([10]; agonist mode, any concentration): did not stimulate; weight-loss on chronic administration [2]: equal or greater weight-loss than those treated with morphine; health on repeated administration (need for euthanasia) [2]: became sick and had to be euthanized; MOPr potency relative to that reported for oxymorphone ([3]; higher potency than oxymorphone (Olson et al., 2019)): approximately 10 fold; Emax [11]: < 15%; day of first statistically significant antinociceptive tolerance [5]: 2 days; antinociception after naloxone pretreatment ([5]; 32 mg/kg 12, 10 mg/kg naloxone pretreatment, C57BL/6 WT): blocked antinociception; antinociception in MOPr KO mice ([5]; 32 mg/kg i.p., C57BL/6 MOPr KO): did not show antinociception; area under the curve (AUC) of antinociceptive time-course ([6]; 32 mg/kg 12 or 10 mg/kg morphine, tested every 30 min): 9247 s*min; tail withdrawal latency, dose-response [6]: dose-dependent increase in tail withdrawal latency; antinociceptive potency relative to morphine ([6]; less potent than morphine, WWTW): approximately 3 fold
CN1CC[C@]23c4c5ccc(O)c4O[C@H]2C(=O)/C(=C/c2cccc4ccccc24)C[C@@]3(O)[C@H]1C5 [Compound 13]	102 ± 37	36 ± 10	> 1000	–	-9.78 ± 0.17	75 nM and 74.8 nM	56 ± 20	-9.95 ± 0.18	> 1000	>13	–	–
CN1CC[C@]23c4c5ccc(O)c4O[C@H]2C(=O)/C(=C/c2ccc4ccccc4c2)C[C@@]3(O)[C@H]1C5 [Compound 14]	–	< 15	12 ± 5	78 ± 11	-12.20 ± 0.29	1.3 ± 0.8 nM	36 ± 4	-10.22 ± 0.06	390 ± 140	299	–	Emax [11]: < 15%
CN1CC[C@]23c4c5ccc(O)c4O[C@H]2[C@@H](O)C=C[C@H]3[C@H]1C5 [morphine, reference compound]	–	–	–	–	–	–	–	–	–	–	–	health on repeated administration (need for euthanasia) [2]: did not require euthanasia; day of first statistically significant antinociceptive tolerance [5]: 3 days
